Data set [1] relates to accumulation of cells in peritoneal cavity. Put plainly: Inhibition of leukocyte migration into thioglycolate inflamed peritoneal cavity. In kind it is in vivo, Balb/c mice. As to conditions: 1 mg/kg iv. How it is done: To induce inflammation, female Balb/c mice were injected intraperitoneally with 1 ml of 3% Thioglycolate Broth (TG), three animals/group. Mice in the control group were injected iv with plain vehicle PBS-10% DMSO, and mice in the peptide group were injected iv with 1 mg/kg YADGACPCFLLGCC in PBS-10% DMSO. After 60 or 120 minutes, the mice were sacrificed. Cells in peritoneal cavity were collected by lavage with 5 ml PBS-5 mM EDTA, and counted with a hemocytometer.
In this experiment different cell populations were not distinguished. However, once again, YADGACPCFLLGCC reduced the accumulation of cells in experimental inflammation in vivo by 78% after 60 minutes and 52% after 120 minutes (FIG. 9).

Data set [2] concerns THP-1 cell line. Put plainly: Blocking of LLG-GFP binding to THP-1 cell line. The format is cell-based. As to the method: What has been observed is that at 50 μM YLLG concentration 95% of LLG-GFPs binding is been blocked. When concentrations are been lowered to 20 μM still 70% inhibition occurs. […] However, due to the unspecific binding of peptide to the plastic walls of the container and the relative high concentrations of LLG-GFP needed for signal nanomolar scale, experiments can not been performed with this setup on its current already un-optimized state.

Data set [3] concerns S. aureus abscess. Kind of data set: LLG targeting to S. aureus abscess in rats (gamma camera imaging, gamma-counter biodistribution). The format is in vivo, Wistar rats. As to the method:
(§1) In this experiment, the targeting of LLG to sites of inflammation was examined in Wistar rats and New Zealand White rabbits, by inducing an abscess with approximately 1×10^9 colony-forming units of Staphylococcus aureus or Escherichia coli injected into the left tight muscle. During the procedure, the animals were anesthetized. After 24 hours, when swelling of the muscle was apparent, the In-111 radiolabeled peptide CPCFLLGCC was injected i.v. and accumulation of the peptide was followed with gamma camera imaging. The peptide was tested using 3 animals in both animal species.
In rats assay, animals were followed-up for 2 hours after peptide injection. […] However, signal-to-background ratio remained high, and as in rabbits, no other targets than abscess could be detected.
(§2) After the imaging period, animals were sacrificed, various tissues were collected and the accumulated radioactivity was measured using a gamma-counter. In FIG. 7A, the amount of accumulated peptide (expressed as percentage of injected dose/weight of the tissue measured; % ID/g) is shown for certain tissues of rabbits (mean of 3 animals). […] In these animals, the corresponding ratios were 4.5 and 2.0 for muscle and blood, respectively.

The test system of data set [4] is E. coli abscess. Kind of data set: LLG targeting to E. coli abscess in rabbits (gamma camera imaging, gamma-counter biodistribution). The format is in vivo, New Zealand White rabbits. How it is done:
as §1
The animals were followed-up for 4 hours. In late images urinary excretion disturbed the imaging, but signal-to-background ratio remained high. No other targets than abscess could be detected. Imaging would have been even more successful, if the rabbits would have been catheterized (or bladder emptied) before imaging session.
as §2

Data set [5] concerns human myelomonocytic leukemia U937 cell line. Put plainly: Tumor targeting of radiolabelled LLG derivatives in mouse model of human myelomonocytic leukemia (gamma imaging, tissue counting). In kind it is in vivo. The text has this:
(§3) I-125 label, mouse model of human myelomonocytic leukemia. Planar gamma image. In these figures animals have been injected with radiolabelled peptide and anesthesized animals have been imaged under gamma camera (pinhole collimator, Picker SX-300 gamma camera).
(§4) The radiolabelled peptide derivatives were imaged at different time points using gamma camera in order to study tumor uptake in vivo as a function of time. After last imaging, tumor tissue were extirpated and counted for radioactivity. Detailed microdistribution was studied using quantitative autoradiography.
(§5) The peptide was labelled using In-111 label and direct iodination, as well as cDTPA.
(§6) The peptide was labelled using In-111 label and direct iodination and cDTPA. […] In this model absolute tumor-to-blood ratio was 4.7 at 24 hrs.

Data set [6] is described as follows: Biodistribution of I-125 labelled LLG in mice. In kind it is in vivo. As to conditions: 30 min and 180 min after tail vein injection. As to the method: LLG (YADGACPCFLLGCC) was labelled with I-125, and the purified peptide (40 μg; ˜500 kBq) was injected into the tail vein of mice in the volume of […]. At 30 min and 180 min after peptide injection, the mice were sacrificed and their blood and tissues were collected to measure the radioactivity. Results are expressed as percentage of injected dose per 1.0 g tissue (% D/g) (FIG. 11). All values are indicated as the mean±SD of 3 mice.

A short description of data set [7]: Tumor targeting of radiolabelled LLG derivatives in mouse model of human myelomonocytic leukemia (gamma imaging, tissue counting). The format is in vivo. As to conditions: mouse, in vivo, total radioactivity; at 24 hrs, intravenous injection, U937 model; read-out: absolute tumor-to-blood ratio.
Description: as §3, §4, §5, §6

Data set [8] deals with integrin I-domain. Put plainly: BIACORE affinity of LLG to integrin. The format is binding. As to conditions: 134 nM-134 μM; not detectable due to the small size of the peptide. As to the method: We examined the affinity of LLG to integrin using BIACORE. In this method, purified integrin I-domain was immobilized on the gold coated carboxymethylated dextran chip. The immobilization succeeded, and in various channels a RU between 2000-4000 was obtained. Various concentrations (3.3 nM-33 μM) of LLG-GST or GST were tested for their ability to bind to the I-domain. Reaction buffer was 10 mM HEPES (pH 7.4)-150 mM NaCl, with or without 1 mM MgCl2. […] Addition of detergent P20 0.05% could not diminish the background.
In another set of experiment, plain LLG peptide was used for affinity testing. The concentration of the tested peptide varied between 134 nM-134 μM. […] The BIACORE method is currently under development, and we intend to study the affinity again with a peptide coupled to a higher molecular weight, inert carrier molecule.

The mark [9] stands for this setting: % ID/g, mean of 3 animals, after imaging period.

Where a SMILES comes first, the peptide text is derived from it. Bridges are numbered along the chain shown (N, C = ends). Where no end group is shown, it is not given here. The star is where a group is joined. DTPA = O=C(O)CN(CCN(CC(=O)O)CC(=O)O)CCN(CC(=O)O)CC(=O)*

For YADGACPCFLLGCC, the “reduction of accumulation of cells in experimental inflammation” value in data set [1] (after 60 minutes) amounted to 78%; in data set [1] (after 120 minutes), 52%. Moreover, the “inhibition of LLG-GFPs binding” value in data set [2] (20 μM YLLG) was found to be 70%. The LLG-GFPs binding blocked in data set [2] (50 μM YLLG) worked out at 95%. Also, in data set [2] (judged from FIG. 12), the “IC 50 of blocking LLG-GFP binding” value is given as “on nanomolar scale”.

In the case of “In-111 radiolabeled peptide CPCFLLGCC: In-111 radiolabeled peptide CPCFLLGCC, cDTPA chelation (cysteine pairing not given here; also: In-111 radiolabel, cDTPA chelation)”, the “signal-to-background ratio in late images” value in data set [3] and in data set [4] was “remained high” throughout. Also, the “abscess targeting in gamma camera imaging” value is given as “specific targeting” in data set [3] (S. aureus abscess, followed 2 hours) and “specific targeting into tight muscle, which was clearly visible within one hour” in data set [4] (E. coli abscess in thigh muscle, i.v., followed 4 hours). In addition, the “accumulation ratio abscess to blood” value in data set [3] (after imaging period) came out at 2.0. Further, the “accumulation ratio abscess to muscle” value in data set [3] (after imaging period) is listed as 4.5. Besides, the “accumulation in abscess compared to blood” value in data set [4] (setting [9]) stood at 2.3 fold. In data set [4] (setting [9]), the “accumulation in abscess compared to muscle” value is given as 21.7 fold. The clearance result in data set [4] (i.v.) is listed as “rapid clearance through kidneys”.

Consider “I-125-YADGA LLG peptide: YADGACPCFLLGCC labelled with I-125 by direct iodination (cysteine pairing not given here; also: I-125 label by direct iodination)”, for which the “tumor targeting (planar gamma image)” value in data set [5] (at 24 hrs after intravenous injection, FIGS. 2-3) is on record as “tumor targeting”. Moreover, the clearance result in data set [6] was “rapid clearance through kidneys”. For the same molecule, the tissue accumulation result in data set [6] (40 μg) is given as “did not accumulate in any tissue”.

Take `CC(C)C[C@@H]1NC(=O)[C@H](CC(C)C)NC(=O)[C@H](Cc2ccccc2)NC(=O)[C@@H]2CSSC[C@@H](C(=O)O)NC(=O)[C@H](CSSC[C@H](NC(=O)[C@H](C)NC(=O)CNC(=O)[C@H](CC(=O)O)NC(=O)[C@H](C)NC(=O)[C@H](Cc3ccc(O)cc3)NC(=O)CN(CCN(CCN(CC(=O)O)CC(=O)O)CC(=O)O)CC(=O)O)C(=O)N3CCC[C@H]3C(=O)N2)NC(=O)CNC1=O` [In-111-YADGA LLG, metal not drawn] ({DTPA}-YADGACPCFLLGCC-OH; disulfide 6-13, 8-14 (inferred); N-terminus and C-terminus assumed): the tissue to tissue ratio at 24 h in data set [7] came to 4.7. Further, the “tumor targeting (gamma image)” value in data set [5] (at 3 hrs after intravenous injection, FIG. 1) is on record as “clearly tumor targeting”.

With “CPCFLLGCC [nonapeptide with two disulfide bridges, ligand to leukocyte β2 integrins]”, the “specific binding to immobilized integrin I-domain” value in data set [8] is given as “no specific binding could be detected”.
